From ChEMBL document CHEMBL5214930, “Discovery of the First Selective IDO2 Inhibitor As Novel Immunotherapeutic Avenues for Rheumatoid Arthritis” (J Med Chem, 2022)
The source made the active and inactive calls. The rule behind the calls is not given here.

How the values were obtained:
[1] = system: HeLa; test: Antiproliferative activity against human HeLa cells; assay type: functional, cell-based
[2] = molecular target: T1, Indoleamine 2,3-dioxygenase 2 (Homo sapiens) (UniProt Q6ZQW0); test: Inhibition of recombinant human IDO2 in HeLa cells at […] relative to control; assay type: cell-based
T1 sequence (whole entry): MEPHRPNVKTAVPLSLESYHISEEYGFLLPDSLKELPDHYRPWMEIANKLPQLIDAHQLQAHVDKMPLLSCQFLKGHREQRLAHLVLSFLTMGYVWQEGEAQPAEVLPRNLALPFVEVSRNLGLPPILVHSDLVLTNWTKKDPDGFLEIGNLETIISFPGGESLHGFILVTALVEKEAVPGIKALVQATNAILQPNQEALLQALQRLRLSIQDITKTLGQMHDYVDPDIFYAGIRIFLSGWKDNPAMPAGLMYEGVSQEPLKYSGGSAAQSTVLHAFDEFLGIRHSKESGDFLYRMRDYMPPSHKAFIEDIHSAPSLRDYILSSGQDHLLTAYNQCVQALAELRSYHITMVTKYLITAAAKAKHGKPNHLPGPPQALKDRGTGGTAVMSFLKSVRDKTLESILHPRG

[3] = molecular target: T2, Indoleamine 2,3-dioxygenase 1 (Homo sapiens, UniProt P14902); test: Inhibition of recombinant human IDO1 in HeLa cells at 100 nM relative to control; assay type: cell-based
Target sequence in this assay (P14902 whole entry, looked up): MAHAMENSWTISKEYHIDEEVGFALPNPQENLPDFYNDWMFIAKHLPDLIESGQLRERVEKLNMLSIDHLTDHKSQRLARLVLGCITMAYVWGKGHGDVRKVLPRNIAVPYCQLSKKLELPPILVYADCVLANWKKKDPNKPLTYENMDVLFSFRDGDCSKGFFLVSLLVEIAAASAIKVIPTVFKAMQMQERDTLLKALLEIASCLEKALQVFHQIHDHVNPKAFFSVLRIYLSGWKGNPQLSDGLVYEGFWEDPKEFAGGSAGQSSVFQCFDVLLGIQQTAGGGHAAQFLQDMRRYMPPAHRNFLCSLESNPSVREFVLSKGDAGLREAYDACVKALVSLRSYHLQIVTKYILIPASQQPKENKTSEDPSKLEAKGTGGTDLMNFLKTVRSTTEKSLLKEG

[4] = system: Mus musculus; test: Antiarthritic activity against collagen-induced arthritis DBA/1J mouse model assessed as paw swelling at 15 mg/kg, ip administered from day 57 to 74 post CFA injection and measured every 3 days; assay type: functional, organism-based; settings: time 17.0 day
[5] = system: Mus musculus; test: Antiinflammatory activity against xylene-induced ear swelling ICR mouse model assessed as swelling inhibition ratio at 100 mg/kg, IG measured after 1 hr; assay type: functional; set-up: scale not given: the % may be the effect or the level left
[6] = system: Mus musculus; test: Antiinflammatory activity against xylene-induced ear swelling ICR mouse model assessed as swelling rate at 100 mg/kg, IG measured after 1 hr (Activity = 58.21 +/- 12.79%); assay type: functional
[7] = molecular target: T2, Indoleamine 2,3-dioxygenase 1; test: Inhibition of human IDO1
Target sequence in this assay (P14902 whole entry): as the sequence (P14902 whole entry, looked up) above

[8] = molecular target: T1, Indoleamine 2,3-dioxygenase 2 (Homo sapiens); test: Inhibition of recombinant human IDO2 in HeLa cells at 100 nM relative to control; assay type: cell-based
[9] = molecular target: T3, Indoleamine 2,3-dioxygenase 2 (Homo sapiens, UniProt Q6ZQW0); test: Inhibition of human IDO2
T3 sequence (Q6ZQW0 whole entry): T1 sequence (whole entry)

[10] = molecular target: T3, Indoleamine 2,3-dioxygenase 2; test: Inhibition of IDO2 (unknown origin)
[11] = molecular target: T2, Indoleamine 2,3-dioxygenase 1; test: Inhibition of IDO1 (unknown origin)
Target sequence in this assay (P14902 whole entry): as the sequence (P14902 whole entry, looked up) above

**Q.** Which EC50 [1] does the source give for `O=C(NCc1cn(CCNc2nonc2/C(=N/O)Nc2cc(Br)cc(C(F)(F)F)c2)nn1)c1ccccn1` here?
**A.** 3630 nM

**Q.** What about the inhibition [2] of the same compound?
**A.** 23%

**Q.** And the inhibition [3]?
**A.** 5%

**Q.** Which results are given for `O=C(NCc1cn(CCNc2nonc2/C(=N/O)NCc2ccc(Br)cc2)nn1)c1ccc[nH]1`?
**A.** EC50 [1]: 2630 nM; inhibition [2]: 0%; inhibition [3]: 4%

**Q.** `C[C@@H]1CCN(C(=O)CC#N)C[C@@H]1N(C)c1ncnc2[nH]ccc12` was tested. Which Activity [4] did it give?
**A.** Active

**Q.** Which results are given for `O=C(NCc1cn(CCNc2nonc2/C(=N/O)NCc2ccc(F)c(Br)c2)nn1)c1ccc[nH]1`?
**A.** EC50 [1]: 1600 nM; inhibition [2]: 0%; inhibition [3]: 17%

**Q.** With `O=C(NCc1cn(CCNc2nonc2/C(=N/O)NCc2ccc(F)c(Br)c2)nn1)c1ccccn1` as the compound, how does the EC50 [1] read?
**A.** 1790 nM

**Q.** And the inhibition [2]?
**A.** 5%

**Q.** What about the inhibition [3] of the same compound?
**A.** 26%

**Q.** How did the EC50 [1] turn out when `O=C(NCc1cn(CCNc2nonc2/C(=N/O)Nc2cccc(Cl)c2)nn1)c1ccccn1` was run?
**A.** 106 nM

**Q.** And the inhibition [2]?
**A.** 15%

**Q.** What about the inhibition [3] of the same compound?
**A.** 69%

**Q.** What does the source list for `COc1ccc2cc([C@H](C)C(=O)O)ccc2c1` [NAPROXEN]?
**A.** Activity [5]: 45.29%; Activity [6]: 31.85%

**Q.** Which results are given for `O=C(NCc1cn(CCNc2nonc2/C(=N/O)Nc2ccc(F)c(Br)c2)nn1)c1ccccn1`?
**A.** IC50 [7]: 52 nM; EC50 [1]: 129 nM; inhibition [8]: 39%; Activity [5]: 36.94%; inhibition [2]: 61%; IC50 [9]: 387 nM; inhibition [3]: 72%; Activity [6]: 36.71%

**Q.** How did the EC50 [1] turn out when `O=C(NCc1cn(CCNc2nonc2/C(=N/O)NCc2ccccc2Br)nn1)c1ccccn1` was run?
**A.** 4350 nM

**Q.** What about the inhibition [2] of the same compound?
**A.** 2%

**Q.** And the inhibition [3]?
**A.** 5%

**Q.** `COc1ccc2[nH]c([S+]([O-])Cc3ncc(C)c(OC)c3C)nc2n1` (stereo unspecified) [TENATOPRAZOLE] was tested. Which IC50 [10] did it give?
**A.** 1800 nM

**Q.** What about the IC50 [11] of the same compound?
**A.** > 100000 nM

**Q.** `O=C(NCc1cn(CCNc2nonc2/C(=N/O)NCc2cccc(Br)c2)nn1)c1ccc[nH]1` was tested. Which EC50 [1] did it give?
**A.** 835 nM

**Q.** What about the inhibition [8] of the same compound?
**A.** 24%

**Q.** What about the inhibition [2] of the same compound?
**A.** 70%

**Q.** And the inhibition [3]?
**A.** 12%

**Q.** How did the EC50 [1] turn out when `O=C(NCc1cn(CCNc2nonc2/C(=N/O)Nc2ccc(F)c(C(F)(F)F)c2)nn1)c1ccccn1` was run?
**A.** 456 nM

**Q.** And the inhibition [8]?
**A.** 6%

**Q.** What about the inhibition [2] of the same compound?
**A.** 40%

**Q.** What about the inhibition [3] of the same compound?
**A.** 44%

**Q.** `Cc1cc(Br)cc(N/C(=N\O)c2nonc2NCCn2cc(CNC(=O)c3ccccn3)nn2)c1` was tested. Which EC50 [1] did it give?
**A.** 611 nM

**Q.** And the inhibition [8]?
**A.** 14%

**Q.** And the inhibition [2]?
**A.** 61%

**Q.** What about the inhibition [3] of the same compound?
**A.** 20%

**Q.** For `O=C(NCc1cn(CCNc2nonc2/C(=N/O)NCc2ccccc2Br)nn1)c1ccc[nH]1`, which EC50 [1] is on record?
**A.** 2850 nM

**Q.** And the inhibition [2]?
**A.** 4%

**Q.** What about the inhibition [3] of the same compound?
**A.** 1%
